From patent US8080529B2, “Macrolides with anti-inflammatory activity” (Glaxo Group Limited, priority 2005, dated 2011)
Read-outs that look alike come from different tables or passages of the source.

Experiments:
TNF-α [1] = test: Inhibition of TNF-α production by stimulated human peripheral blood leukocytes in vitro; assay type: cell-based; conditions: Homo sapiens, Leukocyte, read-out: Percentage of inhibition of TNF-α production
Summary of the method: (§1)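 Dextran-sedimented human PBL (3–5×10^6/well) preincubated 2 h at 37 °C with compounds at 50 μM or 10 μM, then stimulated overnight with LPS 2 μg/mL, PMA 1 μg/mL or zymosan 120 μg/mL. Supernatant cytokines quantified by sandwich ELISA; % inhibition versus stimulated untreated controls.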

IL-1α = test: Inhibition of IL-1 production by stimulated human peripheral blood leukocytes in vitro; assay type: cell-based; conditions: Homo sapiens, Leukocyte, read-out: Percentage of inhibition of IL-1α production
IL-6 = test: Inhibition of IL-6 production by stimulated human peripheral blood leukocytes in vitro; assay type: cell-based; conditions: Homo sapiens, Leukocyte, read-out: Percentage of inhibition of IL-6 production
Summary of the method: as §1

IL-8 = test: Inhibition of IL-8 production by stimulated human peripheral blood leukocytes in vitro; assay type: cell-based; conditions: Homo sapiens, Leukocyte, read-out: Percentage of inhibition of IL-8 production
Summary of the method: as §1

[2] = tested on: human peripheral blood mononuclear cells (PBMC); test: Effects on human T-cell proliferation in vitro (3H-thymidine incorporation); assay type: cell-based; conditions: Homo sapiens, PBMC, read-out: Percentage of inhibition of proliferation of stimulated PBMC
Summary of the method: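 Proliferation of human peripheral blood mononuclear cells (PBMC) was assessed in the presence of test compounds. During the final 18 h of culture each well received 1 μCi of ^3H-thymidine. Cells were then collected onto a 96-well filter with a multiple cell harvester, and ^3H-thymidine incorporation was counted on a TopCount NXT to give percentage inhibition of proliferation.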

Hep G2 = test: Cytotoxicity assay (MTT), Hep G2 cell line; assay type: cell-based; conditions: 24 h
Summary of the method: (§2)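 Hep G2 and A549 cells were cultured 24 h at 37° C in RPM medium with test compounds at 50 μM and 12.5 μM. MTT was added for 0.5-2 h and formazan read at 490 nm. Growth value calculated as OD490 treated/OD490 nontreated ×100.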

A549 = test: Cytotoxicity assay (MTT), A549 cell line; assay type: cell-based; conditions: 24 h
Summary of the method: as §2

TNF-α [3] = test: Lipopolysaccharide induced TNF-α production in Balb/cJ mice; assay type: in vivo; conditions: Mus musculus, ip, 1.5 h; 10 mg/kg intraperitoneally, 30 min before LPS; 90 min after LPS; read-out: % inhibition of TNF-α production (plasma)

| Compound | inhibition at 10 µM (TNF-α [1]; LPS-stimulated PBL) [%] | inhibition at 10 µM (TNF-α [1]; PMA-stimulated PBL) [%] | inhibition at 10 µM (TNF-α [1]; zymosan-stimulated PBL) [%] | inhibition at 50 µM (TNF-α [1]; LPS-stimulated PBL) [%] | inhibition at 50 µM (TNF-α [1]; PMA-stimulated PBL) [%] | inhibition at 50 µM (TNF-α [1]; zymosan-stimulated PBL) [%] | inhibition at 10 µM (IL-1α; LPS-stimulated PBL) [%] | inhibition at 10 µM (IL-1α; PMA-stimulated PBL) [%] | inhibition at 10 µM (IL-1α; zymosan-stimulated PBL) [%] | inhibition at 50 µM (IL-1α; LPS-stimulated PBL) [%] | inhibition at 50 µM (IL-1α; PMA-stimulated PBL) [%] | inhibition at 50 µM (IL-1α; zymosan-stimulated PBL) [%] | inhibition at 10 µM (IL-6; LPS-stimulated PBL) [%] | inhibition at 10 µM (IL-6; PMA-stimulated PBL) [%] | inhibition at 10 µM (IL-6; zymosan-stimulated PBL) [%] | inhibition at 50 µM (IL-6; LPS-stimulated PBL) [%] | inhibition at 50 µM (IL-6; PMA-stimulated PBL) [%] | inhibition at 50 µM (IL-6; zymosan-stimulated PBL) [%] | inhibition at 10 µM (IL-8; LPS-stimulated PBL) [%] | inhibition at 10 µM (IL-8; PMA-stimulated PBL) [%] | also measured |
| --- | --- | --- | --- | --- | --- | --- | --- | --- | --- | --- | --- | --- | --- | --- | --- | --- | --- | --- | --- | --- | --- |
| CC[C@H]1OC(=O)[C@H](C)[C@@H](O[C@H]2C[C@@](C)(OC)[C@@H](OC(=O)CCN(CC)CC)[C@H](C)O2)[C@H](C)[C@@H](O[C@@H]2O[C@H](C)C[C@H](N(C)C)[C@H]2O)[C@](C)(O)C[C@@H](C)CN(C)[C@H](C)[C@H]2OC(=O)O[C@@]21C [Example 1, 11,12-Carbonate-11,12-dideoxy-4″-O-(3-diethylamino-propionyl)-azithromycin] | 54 | 0 | 88 | 100 | 94 | 100 | 67 | 0 | 73 | 93 | 84 | 83 | 10 | 0 | 29 | 94 | 96 | 100 | 0 | 0 | inhibition at 10 µM (IL-8; zymosan-stimulated PBL): 29%; inhibition at 50 µM (IL-8; LPS-stimulated PBL): 97%; inhibition at 50 µM (IL-8; PMA-stimulated PBL): 100%; inhibition at 50 µM (IL-8; zymosan-stimulated PBL): 100%; inhibition at 10 µM ([2]; PHA): 95%; inhibition at 50 µM ([2]; PHA): 99%; inhibition at 10 µM ([2]; PMA + iono.): 90%; inhibition at 50 µM ([2]; PMA + iono.): 96%; Percentage of inhibition of cell growth (Hep G2; 12.5 μM): 0%; Percentage of inhibition of cell growth (Hep G2; 50 μM): 15%; Percentage of inhibition of cell growth (A549; 12.5 μM): 0%; Percentage of inhibition of cell growth (A549; 50 μM): 3%; inhibition in vivo at 10 mg/kg (TNF-α [3]): 64% |
| CC[C@H]1OC(=O)[C@H](C)[C@@H](O[C@H]2C[C@@](C)(OC)[C@@H](OC(=O)CCN(C)C)[C@H](C)O2)[C@H](C)[C@@H](O[C@@H]2O[C@H](C)C[C@H](N(C)C)[C@H]2O)[C@](C)(OC)C[C@@H](C)C(=O)N[C@H](C)[C@@H](O)[C@]1(C)O [Example 12, 4″-O-(3-dimethylamino-propionyl)-6-O-methyl-9a-aza-9a-homoerythromycin A] | 23 | 49 | 77 | 92 | 97 | 97 | 43 | 45 | 88 | 95 | 90 | 100 | 16 | 32 | 67 | 81 | 67 | 91 | 7 | 0 | inhibition at 10 µM (IL-8; zymosan-stimulated PBL): 2%; inhibition at 50 µM (IL-8; LPS-stimulated PBL): 72%; inhibition at 50 µM (IL-8; PMA-stimulated PBL): 3%; inhibition at 50 µM (IL-8; zymosan-stimulated PBL): 9%; inhibition at 10 µM ([2]; PHA): 33%; inhibition at 50 µM ([2]; PHA): 99%; inhibition at 10 µM ([2]; PMA + iono.): 29%; inhibition at 50 µM ([2]; PMA + iono.): 96%; Percentage of inhibition of cell growth (Hep G2; 12.5 μM): 0%; Percentage of inhibition of cell growth (Hep G2; 50 μM): 0%; Percentage of inhibition of cell growth (A549; 12.5 μM): 8%; Percentage of inhibition of cell growth (A549; 50 μM): 4%; inhibition in vivo at 10 mg/kg (TNF-α [3]): 69% |
| CC[C@H]1OC(=O)[C@H](C)[C@@H](O[C@H]2C[C@@](C)(OC)[C@@H](OC(=O)CCN(C)CCO)[C@H](C)O2)[C@H](C)[C@@H](O[C@@H]2O[C@H](C)C[C@H](N(C)C)[C@H]2O)[C@](C)(OC)C[C@@H](C)C(=O)N[C@H](C)[C@@H](O)[C@]1(C)O [Example 15] | 61 | 82 | 93 | 99 | 96 | 100 | 80 | 80 | 96 | 98 | 96 | 99 | 39 | 50 | 76 | 93 | 95 | 96 | 38 | 0 | inhibition at 10 µM (IL-8; zymosan-stimulated PBL): 42%; inhibition at 50 µM (IL-8; LPS-stimulated PBL): 94%; inhibition at 50 µM (IL-8; PMA-stimulated PBL): 95%; inhibition at 50 µM (IL-8; zymosan-stimulated PBL): 91%; inhibition at 10 µM ([2]; PHA): 68%; inhibition at 50 µM ([2]; PHA): 99%; inhibition at 10 µM ([2]; PMA + iono.): 53%; inhibition at 50 µM ([2]; PMA + iono.): 98%; Percentage of inhibition of cell growth (Hep G2; 12.5 μM): 3%; Percentage of inhibition of cell growth (Hep G2; 50 μM): 0%; Percentage of inhibition of cell growth (A549; 12.5 μM): 0%; Percentage of inhibition of cell growth (A549; 50 μM): 5%; inhibition in vivo at 10 mg/kg (TNF-α [3]): 100% |
| CC[C@H]1OC(=O)[C@H](C)[C@@H](O[C@H]2C[C@@](C)(OC)[C@@H](OC(=O)CCN3CCN(CCN(C)C)CC3)[C@H](C)O2)[C@H](C)[C@@H](O[C@@H]2O[C@H](C)C[C@H](N(C)C)[C@H]2O)[C@](C)(OC)C[C@@H](C)C(=O)N[C@H](C)[C@@H](O)[C@]1(C)O [Example 17] | 13 | 46 | 30 | 21 | 67 | 46 | 25 | 55 | 58 | 44 | 75 | 90 | 9 | 37 | 33 | 14 | 55 | 60 | 4 | 21 | inhibition at 10 µM (IL-8; zymosan-stimulated PBL): 20%; inhibition at 50 µM (IL-8; LPS-stimulated PBL): 6%; inhibition at 50 µM (IL-8; PMA-stimulated PBL): 13%; inhibition at 50 µM (IL-8; zymosan-stimulated PBL): 13%; inhibition at 10 µM ([2]; PHA): 0%; inhibition at 50 µM ([2]; PHA): 70%; inhibition at 10 µM ([2]; PMA + iono.): 3%; inhibition at 50 µM ([2]; PMA + iono.): 49%; Percentage of inhibition of cell growth (Hep G2; 12.5 μM): 5%; Percentage of inhibition of cell growth (Hep G2; 50 μM): 2%; Percentage of inhibition of cell growth (A549; 12.5 μM): 5%; Percentage of inhibition of cell growth (A549; 50 μM): 2%; inhibition in vivo at 10 mg/kg (TNF-α [3]): 84% |
